Results on 19 compounds are retold here after patent publication US10577363B2, “Substituted piperidine compounds” (EPIZYME, INC., priority 2014, dated 2020).

The target of assay [1] is T1, SMYD3 (Homo sapiens (Human), UniProt Q9H7B4). Nature of the assay: SMYD3 biochemical assay (SPA, 3H-SAM methylation of MEKK2 protein substrate). The following applies: average of n = 1 to n = 50; read-out: SMYD3 Biochem IC50. In outline: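 Methylation of N-terminally GST-tagged MEKK2 by untagged full-length human SMYD3, using 3H-SAM, in pH 8.0 Tris buffer with TCEP, BSG and Tween 20; enzyme and compound sat 30 min at room temperature before substrate addition. Stopped with 100 uM (final) cold SAM; incorporation read by scintillation proximity as dpm/cpm.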

Assay [2] deals with T1, SMYD3. The assay can be described thus: SMYD3 cell assay (Trimethyl-MEKK2 In-Cell Western in 293T/17 cells). To be noted: average of n = 1 to n = 50; read-out: SMYD3 Cell IC50. The class given is cell-based. The method, boiled down: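 In-Cell Western readout: methanol-fixed cells stained for trimethyl-MEKK2 and flag tag, ratio per well normalized to DMSO and background controls.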

T1 sequence (Q9H7B4 whole entry): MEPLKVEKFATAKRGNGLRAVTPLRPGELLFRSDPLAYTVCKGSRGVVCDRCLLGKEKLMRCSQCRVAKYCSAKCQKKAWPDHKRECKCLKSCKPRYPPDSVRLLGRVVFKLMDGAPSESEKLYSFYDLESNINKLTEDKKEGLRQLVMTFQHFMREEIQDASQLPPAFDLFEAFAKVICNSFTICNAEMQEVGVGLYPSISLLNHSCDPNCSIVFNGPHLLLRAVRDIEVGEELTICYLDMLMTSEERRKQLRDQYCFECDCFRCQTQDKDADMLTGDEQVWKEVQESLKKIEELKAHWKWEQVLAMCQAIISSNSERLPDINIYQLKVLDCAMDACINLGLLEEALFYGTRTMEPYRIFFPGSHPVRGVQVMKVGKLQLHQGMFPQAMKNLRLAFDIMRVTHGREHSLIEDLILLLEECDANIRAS

For `CN1CCC(N(C)S(=O)(=O)N2[C@@H]3CCC[C@H]2C[C@H](NC(=O)c2cc(C4CC4)on2)C3)CC1` [compound 718, 5-cyclopropyl-N-((1R,3s,5S)-9-(N-methyl-N-(1-methylpiperidin-4-yl)sulfamoyl)-9-azabicyclo[3.3.1]nonan-3-yl)isoxazole-3-carboxamide], the figures for the IC50 in assay [1] and in assay [2] were 309 nM and 1620 nM, respectively.
Consider `C[C@H]1CN(S(=O)(=O)N(C)C2CCN(Cc3ccccc3)CC2)CC[C@H]1NC(=O)c1cc(C2CC2)on1` [compound 719, N-((3S,4R)-1-(N-(1-benzylpiperidin-4-yl)-N-methylsulfamoyl)-3-methylpiperidin-4-yl)-5-cyclopropylisoxazole-3-carboxamide], for which the values for the IC50 in assay [1] and in assay [2] were 320 nM and 1210 nM, respectively.
As for `COCCN1CCC(CS(=O)(=O)N2CC[C@H](NC(=O)c3cc(C4CC4)on3)C[C@@H]2Cc2ccccc2)CC1` [compound 720, N-((2S,4S)-2-benzyl-1-(((1-(2-methoxyethyl)piperidin-4-yl)methyl)sulfonyl)piperidin-4-yl)-5-cyclopropylisoxazole-3-carboxamide], the 50% inhibitory concentration (IC50) came to 322 nM in assay [1] and 2430 nM in assay [2].
As to `O=C(N[C@@H]1C[C@H]2CC[C@@H](C1)N2S(=O)(=O)CC1CCCNC1)c1cc(C2CC2)on1` (stereo partly drawn) [compound 721, 5-cyclopropyl-N-((1R,3s,5S)-8-((piperidin-3-ylmethyl)sulfonyl)-8-azabicyclo[3.2.1]octan-3-yl)isoxazole-3-carboxamide], the IC50 is 322 nM in assay [1] and 1830 nM in assay [2].
Regarding `O=C(N[C@H]1C[C@H]2CC[C@@H](C1)N2S(=O)(=O)N1CCNC(c2ccccc2)C1)c1cc(C2CC2)on1` (stereo partly drawn) [compound 722, 5-cyclopropyl-N-((1R,3r,5S)-8-((3-phenylpiperazin-1-yl)sulfonyl)-8-azabicyclo[3.2.1]octan-3-yl)isoxazole-3-carboxamide], the IC50 is 326 nM in assay [1] and 1520 nM in assay [2].
On to `O=C(N[C@@H]1CCN(S(=O)(=O)CC2CCNCC2)[C@@H](Cc2ccccc2)C1)c1cc(C2CC2)on1` [compound 723, N-((2S,4R)-2-benzyl-1-((piperidin-4-ylmethyl)sulfonyl)piperidin-4-yl)-5-cyclopropylisoxazole-3-carboxamide], for which the IC50 came out at 326 nM in assay [1] and 2730 nM in assay [2].
On to `CN(C1CCNCC1)S(=O)(=O)N1[C@@H]2CC[C@H]1C[C@H](NC(=O)c1cc(C3CC3)on1)C2` [compound 724, 5-cyclopropyl-N-((1R,3s,5S)-8-(N-methyl-N-(piperidin-4-yl)sulfamoyl)-8-azabicyclo[3.2.1]octan-3-yl)isoxazole-3-carboxamide], for which the half-inhibitory concentration (IC50) in assay [1] came out at 333 nM; in assay [2], 2440 nM.
For `O=C(N[C@H]1CCN(S(=O)(=O)C2CCCNC2)[C@@H](Cc2ccccc2)C1)c1cc(C2CC2)on1` (stereo partly drawn) [compound 725, N-((2S,4S)-2-benzyl-1-(piperidin-3-ylsulfonyl)piperidin-4-yl)-5-cyclopropylisoxazole-3-carboxamide], the IC50 in assay [1] is 340 nM; in assay [2] it was 3070 nM.
As for `O=C(N[C@H]1C[C@H]2CC[C@@H](C1)N2S(=O)(=O)CCN1CCC(OCc2ccccc2)C1)c1cc(C2CC2)on1` (stereo partly drawn) [compound 726, N-((1R,3r,5S)-8-((2-(3-(benzyloxy)pyrrolidin-1-yl)ethyl)sulfonyl)-8-azabicyclo[3.2.1]octan-3-yl)-5-cyclopropylisoxazole-3-carboxamide], the IC50 in assay [1] was found to be 360 nM; in assay [2] it was 2470 nM.
In the case of `CNC/C=C/S(=O)(=O)N1CCC(NC(=O)c2cc(C3CC3)on2)CC1` [compound 727, (E)-5-cyclopropyl-N-(1-((3-(methylamino)prop-1-en-1-yl)sulfonyl)piperidin-4-yl)isoxazole-3-carboxamide], the IC50 in assay [1] is 363 nM; in assay [2] it was 1390 nM.
Turning to `CC(C)[C@@H]1CN(S(=O)(=O)N2CC[C@H](NC(=O)c3cc(C4CC4)on3)C[C@@H]2C)CCN1C` [compound 728, 5-cyclopropyl-N-((2S,4S)-1-(((R)-3-isopropyl-4-methylpiperazin-1-yl)sulfonyl)-2-methylpiperidin-4-yl)isoxazole-3-carboxamide], the half-maximal inhibitory concentration (IC50) was found to be 380 nM in assay [1] and 1370 nM in assay [2].
`O=C(N[C@@H]1C[C@H]2CC[C@@H](C1)N2S(=O)(=O)C1CCCNC1)c1cc(C2CC2)on1` (stereo partly drawn) [compound 729, 5-cyclopropyl-N-((1R,3s,5S)-8-(piperidin-3-ylsulfonyl)-8-azabicyclo[3.2.1]octan-3-yl)isoxazole-3-carboxamide]: the 50% inhibitory concentration (IC50) came to 411 nM in assay [1] and 2530 nM in assay [2].
Taken in the same sequence, the figures for `Nc1cc(S(=O)(=O)N2[C@@H]3CCC[C@H]2C[C@@H](NC(=O)c2cc(C4CC4)on2)C3)ccn1` [compound 730, N-((1R,3r,5S)-9-((2-aminopyridin-4-yl)sulfonyl)-9-azabicyclo[3.3.1]nonan-3-yl)-5-cyclopropylisoxazole-3-carboxamide] were 413 nM and 1320 nM.
On to `C[C@H]1CN(S(=O)(=O)N2CCN(C)CC2)[C@@H](C)C[C@H]1NC(=O)c1cc(C2CC2)on1` [compound 731, 5-cyclopropyl-N-((2S,4R,5S)-2,5-dimethyl-1-((4-methylpiperazin-1-yl)sulfonyl)piperidin-4-yl)isoxazole-3-carboxamide], for which the figures for the IC50 in assay [1] and in assay [2] were 418 nM and 1330 nM, respectively.
For `C[C@H]1CN(S(=O)(=O)CCN2CCCC2)[C@@H](C)C[C@H]1NC(=O)c1cc(C2CC2)on1` [compound 732, 5-cyclopropyl-N-((2S,4R,5S)-2,5-dimethyl-1-((2-(pyrrolidin-1-yl)ethyl)sulfonyl)piperidin-4-yl)isoxazole-3-carboxamide], the IC50 was 431 nM in assay [1] and 1460 nM in assay [2].
The matching figures for `O=C(NC1C[C@H]2CCC[C@H](C1)N2S(=O)(=O)c1ccc(Cl)cn1)c1cc(C2CC2)on1` (stereo partly drawn) [compound 733, N-((1R,5R)-9-((5-chloropyridin-2-yl)sulfonyl)-9-azabicyclo[3.3.1]nonan-3-yl)-5-cyclopropylisoxazole-3-carboxamide]: 442 nM and 1960 nM.
On to `NCCCNc1ncccc1S(=O)(=O)N1[C@@H]2CCC[C@H]1C[C@@H](NC(=O)c1cc(C3CC3)on1)C2` [compound 734, N-((1R,3r,5S)-9-((2-((3-aminopropyl)amino)pyridin-3-yl)sulfonyl)-9-azabicyclo[3.3.1]nonan-3-yl)-5-cyclopropylisoxazole-3-carboxamide], for which the figures for the IC50 in assay [1] and in assay [2] were 442 nM and 4170 nM, respectively.
For `C[C@H]1CN(S(=O)(=O)N2CC[C@H](NC(=O)c3cc(C4CC4)on3)C[C@@H]2C)CCN1C` [compound 735, 5-cyclopropyl-N-((2S,4S)-1-(((S)-3,4-dimethylpiperazin-1-yl)sulfonyl)-2-methylpiperidin-4-yl)isoxazole-3-carboxamide], the results for the IC50 in assay [1] and in assay [2] were 446 nM and 1360 nM, respectively.
In the case of `C[C@H]1C[C@@H](NC(=O)c2cc(C3CC3)on2)CCN1S(=O)(=O)N1CCNC(Cc2ccccc2)C1` (stereo partly drawn) [compound 736, N-((2S,4S)-1-((3-benzylpiperazin-1-yl)sulfonyl)-2-methylpiperidin-4-yl)-5-cyclopropylisoxazole-3-carboxamide], the concentration for half-maximal inhibition (IC50) in assay [1] was found to be 452 nM; in assay [2], 2030 nM.
